Results on two compounds are retold here after ChEMBL document CHEMBL1759868, “Folate pro-drug of cystamine as an enhanced treatment for nephropathic cystinosis” (Bioorg Med Chem Lett, 2011).

Active and inactive are the calls of the source. No cut-off for these calls is given here.

A short description of data set [1]: Cytotoxicity against human cystinotic Fibroblast at 50 uM for 72 hrs by Alamar blue assay. The data set is classed as cell-based. In general terms: Resazurin is reduced to fluorescent resorufin, in cell work by metabolically active cells.
Data set [2] has as its system Fibroblast. Description: Decrease in intracellular cystine level in human cystinotic Fibroblast at 50 uM for 24 hrs by thiol assay. The class given is functional, cell-based.

With `Cl.NCCSSCCNC(=O)CC[C@H](NC(=O)c1ccc(NCc2cnc3nc(N)nc(O)c3n2)cc1)C(=O)NCCSSCCN`, the Activity entry in data set [1] was “Non-toxic”. The result in data set [2] was Active.

As for `NCCS` [CYSTEAMINE], in data set [1], the Activity entry is listed as “Non-toxic”.
